These results are taken from patent US20240294531A1, “COVALENT HETEROCYCLES AND USES THEREOF” (Kumquat Biosciences Inc., priority 2022, published 2024).

Usually IC50 stands for the concentration that inhibits the measured activity by half.

The target of one experiment is BTK wildtype protein (Homo sapiens (Human), UniProt Q06187). Put plainly: BTK wildtype HTRF displacement assay. Type of experiment: binding. The note with it: 1-hour incubation; read-out: BTK (wt) IC50. Summed up:
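Full-length N-terminal GST-tagged BTK incubated 1 h at room temperature with compound (6 doses, four-fold dilutions from 5 μM top) plus kinase tracer 239 and anti-GST-Tb antibody. Tracer displacement read as TR-FRET 665/620 ratio, background-subtracted using no-protein control. IC50 from four-parameter fit constrained 0–100% inhibition.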

For the next experiment, the target named is BTK C481S protein (Homo sapiens (Human), UniProt Q06187, C481S). In words: BTK C481S HTRF displacement assay. Conditions: 1-hour incubation. Type of experiment: binding. Summed up:
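N-terminal GST-tagged BTK C481S (2-659) incubated 1 hour at room temperature with compound (6 doses, four-fold from 5 μM), 50 nM kinase tracer 239 and anti-GST-Tb antibody. TR-FRET 665/620 ratio, background-subtracted; IC50 from constrained four-parameter fit. KI=IC50/(1+[Tracer]/Kd), tracer Kd 54 nM.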
(Time-resolved FRET reads energy transfer from a long-lived donor to a nearby acceptor.)

BTK C481S protein, sequence (Q06187 2-659 C481S): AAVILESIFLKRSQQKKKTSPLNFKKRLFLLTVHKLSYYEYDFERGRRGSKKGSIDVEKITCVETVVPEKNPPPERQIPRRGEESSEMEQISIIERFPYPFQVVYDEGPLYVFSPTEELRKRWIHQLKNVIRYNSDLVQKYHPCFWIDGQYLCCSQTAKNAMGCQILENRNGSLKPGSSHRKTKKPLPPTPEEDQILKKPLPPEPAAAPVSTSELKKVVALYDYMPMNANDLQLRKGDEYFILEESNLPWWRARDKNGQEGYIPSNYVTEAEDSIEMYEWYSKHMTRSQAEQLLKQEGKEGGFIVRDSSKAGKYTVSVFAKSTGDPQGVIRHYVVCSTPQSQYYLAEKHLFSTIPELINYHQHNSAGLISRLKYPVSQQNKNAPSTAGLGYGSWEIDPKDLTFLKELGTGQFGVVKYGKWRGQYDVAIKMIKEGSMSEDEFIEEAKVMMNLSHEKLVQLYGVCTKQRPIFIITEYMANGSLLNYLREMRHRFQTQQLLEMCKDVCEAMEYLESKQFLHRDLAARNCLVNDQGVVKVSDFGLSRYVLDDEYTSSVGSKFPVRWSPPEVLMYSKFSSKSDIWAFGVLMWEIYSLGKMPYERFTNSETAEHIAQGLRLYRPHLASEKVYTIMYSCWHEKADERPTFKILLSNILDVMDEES
BTK wildtype protein, sequence (Q06187 2-659): as the sequence (Q06187 2-659 C481S) above, with S480C counted along it

In the case of `NC(=O)c1c(-c2ccc(Oc3ccccc3)cc2)nn2c1NCCC2C1CCN(C(=O)n2cncn2)C1` (centres unmarked) [Compound 282, 7-(1-(1H-1,2,4-triazole-1-carbonyl)pyrrolidin-3-yl)-2-(4-phenoxyphenyl)-4,5,6,7-tetrahydropyrazolo[1,5-a] pyrimidine-3-carboxamide], the IC50 at BTK wildtype protein and at BTK C481S protein was not above 1000 nM each time.

For the compound `COC[C@@H](C1CCNc2c(C(N)=O)c(-c3ccc(Oc4ccccc4)cc3)nn21)N(C)C(=O)n1cncn1` (stereo partly drawn) [Compound 285, 7-((R)-2-methoxy-1-(N-methyl-1H-1,2,4-triazole-1-carboxamido)ethyl)-2-(4-phenoxyphenyl)-4,5,6,7-tetrahydropyrazolo [1,5-a]pyrimidine-3-carboxamide], the half-maximal inhibitory concentration (IC50) on BTK wildtype protein and at BTK C481S protein was more than 1000 nM each time.

Turning to `COc1ccc(F)cc1C(=O)NCc1ccc(-c2nn(CCCN(C(=O)n3cncn3)C3CC3)c3ncnc(N)c23)cc1` [Compound 287, N-(3-(4-amino-3-(4-((5-fluoro-2-methoxybenzamido)methyl)phenyl)-1H-pyrazolo[3,4-d]pyrimidin-1-yl)propyl)-N-cyclopropyl-1H-1,2,4-triazole-1-carboxamide], the IC50 at BTK wildtype protein and at BTK C481S protein was not above 1000 nM in each case.

On to `NC(=O)c1c(-c2ccc(Oc3ccccc3)cc2)nn2c1NCC1CCN(C(=O)n3cncn3)CC12` (centres unmarked) [Compound 288, 2-(4-phenoxyphenyl)-8-(1H-1,2,4-triazole-1-carbonyl)-4,5,5a,6,7,8,9,9a-octahydropyrazolo[1,5-a]pyrido [4,3-e]pyrimidine-3-carboxamide], for which the IC50 at BTK wildtype protein and on BTK C481S protein was not above 1000 nM throughout.

`COCCC(CN(C)C(=O)n1cncn1)n1nc(-c2ccc(CNC(=O)c3cc(F)ccc3OC)cc2)c2c(N)ncnc21` (centres unmarked) [Compound 291, N-(2-(4-amino-3-(4-((5-fluoro-2-methoxybenzamido)methyl)phenyl)-1H-pyrazolo[3,4-d]pyrimidin-1-yl)-4-methoxybutyl)-N-methyl-1H-1,2,4-triazole-1-carboxamide]: the IC50 at BTK wildtype protein and at BTK C481S protein was more than 1000 nM throughout.

Take `COc1ccc(F)cc1C(=O)NCc1ccc(-c2nn(C[C@H]3CCCN3C(=O)n3cncn3)c3ncnc(N)c23)cc1` [Compound 292, (R)-N-(4-(1-((1-(1H-1,2,4-triazole-1-carbonyl)pyrrolidin-2-yl)methyl)-4-amino-1H-pyrazolo[3,4-d]pyrimidin-3-yl)benzyl)-5-fluoro-2-methoxybenzamide]: the IC50 at BTK wildtype protein and at BTK C481S protein was not above 1000 nM each time.

As to `COc1ccc(F)cc1C(=O)NCc1ccc(-c2nn(CC3CCCN3C(=O)n3cncn3)c(N)c2C(N)=O)cc1` (centres unmarked) [Compound 293, 1-((1-(1H-1,2,4-triazole-1-carbonyl)pyrrolidin-2-yl)methyl)-5-amino-3-(4-((5-fluoro-2-methoxybenzamido)methyl)phenyl)-1H-pyrazole-4-carboxamide], the IC50 at BTK wildtype protein and at BTK C481S protein was not above 1000 nM in each case.

As to `COc1ccc(F)cc1C(=O)NCc1ccc(-c2nn(CC3CCCC3N(C)C(=O)n3cncn3)c(N)c2C(N)=O)cc1` (centres unmarked) [Compound 294, N-(2-((5-amino-4-carbamoyl-3-(4-((5-fluoro-2-methoxybenzamido)methyl)phenyl)-1H-pyrazol-1-yl)methyl)cyclopentyl)-N-methyl-1H-1,2,4-triazole-1-carboxamide], the IC50 at BTK wildtype protein and on BTK C481S protein was not above 1000 nM throughout.

Regarding `COc1ccc(F)cc1C(=O)NCc1ccc(-c2nn(CC3CCCCN(C(=O)n4cncn4)C3)c(N)c2C(N)=O)cc1` (centres unmarked) [Compound 296, 1-((1-(1H-1,2,4-triazole-1-carbonyl)azepan-3-yl)methyl)-5-amino-3-(4-((5-fluoro-2-methoxybenzamido)methyl)phenyl)-1H-pyrazole-4-carboxamide], the IC50 at BTK wildtype protein and on BTK C481S protein was not above 1000 nM throughout.

`CN(C(=O)n1cncn1)[C@@H]1CCC[C@H](n2nc(-c3ccc(Oc4ccccc4)cc3)c(C(N)=O)c2N)C1` [Compound 297, N-((1R,3S)-3-(5-amino-4-carbamoyl-3-(4-phenoxyphenyl)-1H-pyrazol-1-yl)cyclohexyl)-N-methyl-1H-1,2,4-triazole-1-carboxamide]: the half-inhibitory concentration (IC50) at BTK wildtype protein and on BTK C481S protein was not above 1000 nM each time.

With `COc1ccc(F)cc1C(=O)NCc1ccc(-c2nn(CC3CC(O)CCN3C(=O)n3cncn3)c3ncnc(N)c23)cc1` (centres unmarked) [Compound 298, N-(4-(4-amino-1-((4-hydroxy-1-(1H-1,2,4-triazole-1-carbonyl)piperidin-2-yl)methyl)-1H-pyrazolo[3,4-d]pyrimidin-3-yl)benzyl)-5-fluoro-2-methoxybenzamide], the IC50 on BTK wildtype protein and on BTK C481S protein was more than 1000 nM each time.

`CN(C(=O)n1cnc(Cl)n1)C1CCC(n2nc(-c3ccc(Oc4ccccc4)cc3)c3c(N)ncnc32)CC1` (centres unmarked) [Compound 299, N-(4-(4-amino-3-(4-phenoxyphenyl)-1H-pyrazolo[3,4-d]pyrimidin-1-yl)cyclohexyl)-3-chloro-N-methyl-1H-1,2,4-triazole-1-carboxamide]: the IC50 at BTK wildtype protein and on BTK C481S protein was not above 1000 nM throughout.

On to `COc1nn(C)cc1Nc1nc(N2CCCC(N(C)C(=O)n3cncn3)C2)nc2c1ncn2C` (centres unmarked) [Compound 300, N-(1-(6-((3-methoxy-1-methyl-1H-pyrazol-4-yl)amino)-9-methyl-9H-purin-2-yl)piperidin-3-yl)-N-methyl-1H-1,2,4-triazole-1-carboxamide], for which the results for the IC50 at BTK wildtype protein and at BTK C481S protein were more than 1000 nM and not above 1000 nM, respectively.

Take `CC(C)[C@@H](C1CCNc2c(C(N)=O)c(-c3ccc(Oc4ccccc4)cc3)nn21)N(C)C(=O)n1cncn1` (stereo partly drawn) [Compound 301, 7-((S)-2-methyl-1-(N-methyl-1H-1,2,4-triazole-1-carboxamido)propyl)-2-(4-phenoxyphenyl)-4,5,6,7-tetrahydropyrazolo [1,5-a]pyrimidine-3-carboxamide]: the IC50 at BTK wildtype protein and at BTK C481S protein was more than 1000 nM each time.

As to `COc1ccc(F)cc1C(=O)NCc1ccc(-c2nn(C(C)CCN(C)C(=O)n3cncn3)c3ncnc(N)c23)cc1` (centres unmarked) [Compound 303, N-(3-(4-amino-3-(4-((5-fluoro-2-methoxybenzamido)methyl)phenyl)-1H-pyrazolo[3,4-d]pyrimidin-1-yl)butyl)-N-methyl-1H-1,2,4-triazole-1-carboxamide], the IC50 on BTK wildtype protein and at BTK C481S protein was not above 1000 nM throughout.

Regarding `COc1ccc(F)cc1C(=O)NCc1ccc(-c2nn(C(C)C3CCCCN3C(=O)n3cncn3)c3ncnc(N)c23)cc1` (centres unmarked) [Compound 304, N-(4-(1-(1-(1-(1H-1,2,4-triazole-1-carbonyl)piperidin-2-yl)ethyl)-4-amino-1H-pyrazolo[3,4-d]pyrimidin-3-yl)benzyl)-5-fluoro-2-methoxybenzamide], the IC50 at BTK wildtype protein and at BTK C481S protein was not above 1000 nM throughout.

Turning to `CN(C(=O)n1cncn1)c1ccccc1C1CCNc2c(C(N)=O)c(-c3ccc(Oc4ccccc4)cc3)nn21` (centres unmarked) [Compound 305, 7-(2-(N-methyl-1H-1,2,4-triazole-1-carboxamido)phenyl)-2-(4-phenoxyphenyl)-4,5,6,7-tetrahydropyrazolo[1,5-a] pyrimidine-3-carboxamide], the IC50 on BTK wildtype protein and on BTK C481S protein was more than 1000 nM throughout.

Turning to `NC(=O)c1c(-c2ccc(Oc3ccccc3)cc2)nn2c1NCC1CN(C(=O)n3cncn3)CCC12` (centres unmarked) [Compound 306, 2-(4-phenoxyphenyl)-7-(1H-1,2,4-triazole-1-carbonyl)-4,5,5a,6,7,8,9,9a-octahydropyrazolo[1,5-a]pyrido[3,4-e]pyrimidine-3-carboxamide], the IC50 on BTK wildtype protein and at BTK C481S protein was not above 1000 nM throughout.

With `COc1ccc(F)cc1C(=O)NCc1ccc(-c2nn(C[C@H]3CCC[C@H]3CN(C)C(=O)n3cncn3)c3ncnc(N)c23)cc1` [Compound 307, N-(((1R,2S)-2-((4-amino-3-(4-((5-fluoro-2-methoxybenzamido)methyl)phenyl)-1H-pyrazolo [3,4-d]pyrimidin-1-yl)methyl)cyclopentyl)methyl)-N-methyl-1H-1,2,4-triazole-1-carboxamide], the IC50 on BTK wildtype protein and on BTK C481S protein was not above 1000 nM in each case.

Turning to `CC(CN(C)C(=O)n1cncn1)C1CCNc2c(C(N)=O)c(-c3ccc(Oc4ccccc4)cc3)nn21` (centres unmarked) [Compound 308, 7-(1-(N-methyl-1H-1,2,4-triazole-1-carboxamido)propan-2-yl)-2-(4-phenoxyphenyl)-4,5,6,7-tetrahydropyrazolo[1,5-a] pyrimidine-3-carboxamide], the concentration for half-maximal inhibition (IC50) at BTK wildtype protein and at BTK C481S protein was not above 1000 nM in each case.

As to `CC(CC1CCNc2c(C(N)=O)c(-c3ccc(Oc4ccccc4)cc3)nn21)N(C)C(=O)n1cncn1` (centres unmarked) [Compound 309, 7-(2-(N-methyl-1H-1,2,4-triazole-1-carboxamido)propyl)-2-(4-phenoxyphenyl)-4,5,6,7-tetrahydro-pyrazolo[1,5-a]pyrimidine-3-carboxamide], the IC50 on BTK wildtype protein and on BTK C481S protein was not above 1000 nM each time.

For the compound `COc1ccc(F)cc1C(=O)NCc1ccc(-c2nn(CC3CCC(N(C)C(=O)n4cncn4)C3)c3ncnc(N)c23)cc1` (centres unmarked) [Compound 311, N-(3-((4-amino-3-(4-((5-fluoro-2-methoxybenzamido)methyl)phenyl)-1H-pyrazolo[3,4-d]pyrimidin-1-yl)methyl)cyclopentyl)-N-methyl-1H-1,2,4-triazole-1-carboxamide], the IC50 at BTK wildtype protein and at BTK C481S protein was not above 1000 nM in each case.
